From ChEMBL document CHEMBL1156624, “A click chemistry approach to pleuromutilin conjugates with nucleosides or acyclic nucleoside derivatives and their binding to the bacterial ribosome” (J Med Chem, 2008) come the findings set out here.

Assay [1] concerns Escherichia coli. In words: Binding affinity to Escherichia coli MRE600 ribosome assessed as protection against N1-cyclohexyl-N3-(2-morpholino)ethylcarbodiimide p-toluenesulfonate-induced modifications at nucleotide U2506 in peptidyl transferase center of 23S rRNA at 5 uM by chemical footprinting relative to control.
Assay [2] deals with Escherichia coli. In words: Binding affinity to Escherichia coli MRE600 ribosome assessed as protection against N1-cyclohexyl-N3-(2-morpholino)ethylcarbodiimide p-toluenesulfonate-induced modifications at nucleotide U2585 in peptidyl transferase center of 23S rRNA at 5 uM by chemical footprinting relative to control.
Assay [3] has as its system Escherichia coli. The assay is described as follows: Binding affinity to Escherichia coli MRE600 ribosome assessed as protection against N1-cyclohexyl-N3-(2-morpholino)ethylcarbodiimide p-toluenesulfonate-induced modifications at nucleotide U2506 in peptidyl transferase center of 23S rRNA at 50 uM by chemical footprinting relative to control.
The subject of assay [4] is Escherichia coli. The assay is described as follows: Binding affinity to Escherichia coli MRE600 ribosome assessed as protection against N1-cyclohexyl-N3-(2-morpholino)ethylcarbodiimide p-toluenesulfonate-induced modifications at nucleotide U2585 in peptidyl transferase center of 23S rRNA at 50 uM by chemical footprinting relative to control.

For the molecule `C=C[C@]1(C)C[C@@H](OC(=O)Cn2cc([C@@H](O)[C@@H]3O[C@H](n4cc(C)c(=O)[nH]c4=O)C[C@H]3O)nn2)[C@]2(C)[C@H](C)CC[C@]3(CCC(=O)[C@@H]32)[C@@H](C)[C@@H]1O` (mixture of isomers), the Activity in assay [1] is 0.38; in assay [2], 0.5; in assay [3], 0.1; in assay [4], 0.25.
For `C=C[C@]1(C)C[C@@H](OC(=O)CO)[C@]2(C)[C@H](C)CC[C@]3(CCC(=O)[C@@H]32)[C@@H](C)[C@@H]1O`, in that order: 0.42, 0.99, 0.1 and 0.98.
On to `C=C[C@]1(C)C[C@@H](OC(=O)Cn2cc(CO[C@@H]3C[C@@H](n4cc(C)c(=O)[nH]c4=O)O[C@H]3CO)nn2)[C@]2(C)[C@H](C)CC[C@]3(CCC(=O)[C@@H]32)[C@@H](C)[C@@H]1O`, for which the Activity in assay [1] was found to be 0.44; in assay [2] it was 0.73; in assay [3] it was 0.12; in assay [4], 0.41.
`C=C[C@]1(C)C[C@@H](OC(=O)Cn2cc(CO[C@@H]3[C@H](O)[C@@H](CO)O[C@H]3n3ccc(=O)[nH]c3=O)nn2)[C@]2(C)[C@H](C)CC[C@]3(CCC(=O)[C@@H]32)[C@@H](C)[C@@H]1O`: the Activity in assay [1] was 0.54; in assay [2] it was 0.72; in assay [3], 0.14; in assay [4], 0.29.
For `C=C[C@]1(C)C[C@@H](OC(=O)Cn2cc([C@]3(O)[C@@H](CO)O[C@@H](n4ccc(=O)[nH]c4=O)[C@@H]3O)nn2)[C@]2(C)[C@H](C)CC[C@]3(CCC(=O)[C@@H]32)[C@@H](C)[C@@H]1O`, in that order: 0.24, 0.45, 0.03 and 0.18.
For `C=C[C@]1(C)C[C@@H](OC(=O)Cn2cc(CCc3ccccc3)nn2)[C@]2(C)[C@H](C)CC[C@]3(CCC(=O)[C@@H]32)[C@@H](C)[C@@H]1O`, in that order: 0.29, 0.61, 0.05 and 0.35.
The corresponding values for `C=C[C@]1(C)C[C@@H](OC(=O)Cn2cc(C[C@H](O)[C@@H]3O[C@H](n4cc(C)c(=O)[nH]c4=O)C[C@H]3O)nn2)[C@]2(C)[C@H](C)CC[C@]3(CCC(=O)[C@@H]32)[C@@H](C)[C@@H]1O` are 0.33, 0.69, 0.09 and 0.35.
`C=C[C@]1(C)C[C@@H](OC(=O)Cn2cc(Cc3ccccc3)nn2)[C@]2(C)[C@H](C)CC[C@]3(CCC(=O)[C@@H]32)[C@@H](C)[C@@H]1O`: the Activity came out at 0.31 in assay [1], 0.54 in assay [2], 0.06 in assay [3] and 0.29 in assay [4].
The corresponding values for `C=C[C@]1(C)C[C@@H](OC(=O)CSCCN(CC)CC)[C@]2(C)[C@H](C)CC[C@]3(CCC(=O)[C@H]32)[C@@H](C)[C@@H]1O` are 0.1, 0.59, 0.05 and 0.58.
The corresponding values for `C=C[C@]1(C)C[C@@H](OC(=O)Cn2cc(CCCc3ccccc3)nn2)[C@]2(C)[C@H](C)CC[C@]3(CCC(=O)[C@@H]32)[C@@H](C)[C@@H]1O` are 0.21, 0.48, 0.08 and 0.41.
Consider `C=C[C@]1(C)C[C@@H](OC(=O)Cn2cc([C@]3(O)[C@H](O)[C@@H](CO)O[C@H]3n3ccc(=O)[nH]c3=O)nn2)[C@]2(C)[C@H](C)CC[C@]3(CCC(=O)[C@@H]32)[C@@H](C)[C@@H]1O`, for which the Activity in assay [1] was found to be 0.61; in assay [2], 0.74; in assay [3], 0.18; in assay [4] it was 0.35.
The corresponding values for `C=C[C@]1(C)C[C@@H](OC(=O)Cn2cc(Cn3cnc4c(N)ncnc43)nn2)[C@]2(C)[C@H](C)CC[C@]3(CCC(=O)[C@@H]32)[C@@H](C)[C@@H]1O` are 0.73, 0.73, 0.19 and 0.37.
For `C=C[C@]1(C)C[C@@H](OC(=O)Cn2cc(COC[C@H]3O[C@@H](n4cc(C)c(=O)[nH]c4=O)C[C@@H]3O)nn2)[C@]2(C)[C@H](C)CC[C@]3(CCC(=O)[C@@H]32)[C@@H](C)[C@@H]1O`, in that order: 0.62, 0.93, 0.19 and 0.36.
The corresponding values for `C=C[C@]1(C)C[C@@H](OC(=O)Cn2cc(CCCn3ccc(N)nc3=O)nn2)[C@]2(C)[C@H](C)CC[C@]3(CCC(=O)[C@@H]32)[C@@H](C)[C@@H]1O` are 0.27, 0.56, 0.05 and 0.26.
Consider `C=C[C@]1(C)C[C@@H](OC(=O)Cn2cc(Cn3cc(C)c(=O)[nH]c3=O)nn2)[C@]2(C)[C@H](C)CC[C@]3(CCC(=O)[C@@H]32)[C@@H](C)[C@@H]1O`, for which the Activity in assay [1] turned out to be 0.69; in assay [2], 0.75; in assay [3] it was 0.18; in assay [4], 0.37.
For `C=C[C@]1(C)C[C@@H](OC(=O)Cn2cc(Cn3ccc(N)nc3=O)nn2)[C@]2(C)[C@H](C)CC[C@]3(CCC(=O)[C@@H]32)[C@@H](C)[C@@H]1O`, in that order: 0.61, 0.69, 0.16 and 0.38.
With `C=C[C@]1(C)C[C@@H](OC(=O)Cn2cc(CCCn3cc(C)c(=O)[nH]c3=O)nn2)[C@]2(C)[C@H](C)CC[C@]3(CCC(=O)[C@@H]32)[C@@H](C)[C@@H]1O`, the Activity is 0.41 in assay [1], 0.46 in assay [2], 0.08 in assay [3] and 0.24 in assay [4].
Regarding `C=C[C@]1(C)C[C@@H](OC(=O)Cn2cc(C[C@@H](O)[C@@H]3O[C@H](n4cc(C)c(=O)[nH]c4=O)C[C@H]3O)nn2)[C@]2(C)[C@H](C)CC[C@]3(CCC(=O)[C@@H]32)[C@@H](C)[C@@H]1O`, the Activity in assay [1] was 0.32; in assay [2] it was 0.59; in assay [3], 0.09; in assay [4] it was 0.29.
As to `C=C[C@]1(C)C[C@@H](OC(=O)Cn2cc(CCCn3cnc4c(N)ncnc43)nn2)[C@]2(C)[C@H](C)CC[C@]3(CCC(=O)[C@@H]32)[C@@H](C)[C@@H]1O`, the Activity in assay [1] turned out to be 0.17; in assay [2], 0.33; in assay [3], 0.06; in assay [4] it was 0.22.
The corresponding values for `C=C[C@]1(C)C[C@@H](OC(=O)Cn2cc(CCn3cnc4c(N)ncnc43)nn2)[C@]2(C)[C@H](C)CC[C@]3(CCC(=O)[C@@H]32)[C@@H](C)[C@@H]1O` are 0.37, 0.4, 0.1 and 0.26.
The corresponding values for `C=C[C@]1(C)C[C@@H](OC(=O)Cn2cc(CCn3cc(C)c(=O)[nH]c3=O)nn2)[C@]2(C)[C@H](C)CC[C@]3(CCC(=O)[C@@H]32)[C@@H](C)[C@@H]1O` are 0.53, 0.57, 0.1 and 0.36.
